# Data reported in patent US9751840B2, “R-7-(3-aminomethyl-4-methoxyimino-3-methyl-pyrrolidin-1-yl)-1-cyclopropyl-6-fluoro-4-oxo-acid and L-aspartic acid salt, process for the preparation thereof and pharmaceutical composition comprising the same for antimicrobial” (ARIBIO CO. LTD., priority 2009, dated 2017).
# Where two headings read alike, the source gives them in different places.
# Columns and labels:
# [1] = test system: polychromatic erythrocyte with one or more nuclei (MNPCE); assay: In vivo genotoxicity, micronucleus test; settings: male mice, twice intraperitoneal, 30, 15, 7.5 mg/kg
# From the text: The following study performed to obtain in vivo genotoxicities, micronucleus test of L-aspartate and hydrochloric acid salt in male mice to the following procedure.
# [2] = test system: Male ICR mice; assay: Single dose toxicity in mice (LD50); settings: single intraperitoneal dose, observed 14 days
# Description: The following experiment was performed in order to observe the degree of toxicity of the L-aspartate according to the present invention.
# Male ICR mice were used as experimental animals. 5 male ICR mice were divided into 6 dose groups, respectively and fasted except for water for 24 hours.
# [3] = In vivo tissue distribution test; parameters: species or system ICR mice; settings: mouse, po; for Kp: ICR, 100 mg/kg
# Description: An in vivo tissue distribution test was performed in order to confirm the degree of drug distribution of the L-aspartate and hydrochloride according to the present invention in each organ. After 8-week-old ICR mice were purchased and adapted in the laboratory, each salt was orally administered to the mouse at a dose of 100 mg/kg. The mice were bled and sacrificed at a predetermined time and each organ was drawn to measure the concentration in each organ. After the administration of hydrochloride and L-aspartate, each organ concentration over time, the area under the corresponding time-concentration curve, and the ratio of permeation into tissue were shown in Tables 5 and 6.
# Then, P ratio is a ratio of permeation into muscle and calculated as intramuscular AUC/intraplasmic AUC.
# [4] = Solubility test; type: physicochemical
# [5] = In vivo pharmacokinetic test; parameters: species or system SD rats; settings: rats
# From the text: The L-aspartate and hydrochloride according to the present invention were orally or intravenously administered to SD rats, respectively and blood samples were collected at a predetermined time to compare in vivo pharmacokinetics.
# Then, Cmax: maximum drug concentration, Tmax: maximum drug concentration time, T1/2: drug half-life, AUCO-t: area under the plasma concentration-time curve from time zero to t hours, and AUCO-inf: area under the plasma concentration-time curve from time zero to infinity.
# [6] = Stability test in distilled water; type: physicochemical; settings: 30 mg in 100 ml distilled water
# [7] = In vivo tissue distribution test; parameters: species or system ICR mice; settings: ICR, mouse, spleen, po, 100 mg/kg; read-out: P ratio Spleen
# [8] = male, testicle, ICR mice, p.o. 100 mg/kg, read-out: Testicle concentration
# [9] = brain, ICR mice, p.o. 100 mg/kg, read-out: Brain concentration
# [10] = heart, ICR mice, p.o. 100 mg/kg, read-out: Heart concentration
# [11] = kidney, ICR mice, p.o. 100 mg/kg, read-out: Kidney concentration
# [12] = liver, ICR mice, p.o. 100 mg/kg, read-out: Liver concentration
# [13] = lung, ICR mice, p.o. 100 mg/kg, read-out: Lung concentration
# [14] = muscle, ICR mice, p.o. 100 mg/kg, read-out: Muscle concentration
# [15] = plasma, ICR mice, p.o. 100 mg/kg, read-out: Plasma concentration
# [16] = spleen, ICR mice, p.o. 100 mg/kg, read-out: Spleen concentration
# [17] = testicle, ICR mice, p.o. 100 mg/kg, read-out: Testicle concentration
# [18] = thymus, ICR mice, p.o. 100 mg/kg, read-out: Thymus concentration
# [19] = SD, rat, plasma, iv, i.v. 10 mg/kg
# [20] = SD, rat, plasma, po, p.o. 100 mg/kg
smiles,measurement,setting,value
CO/N=C1/CN(c2nc3c(cc2F)c(=O)c(C(=O)O)cn3C2CC2)C[C@@]1(C)CN [L-aspartate (Example 1)],MNPCE number vs intact control,[1],not detected significant change
same,Lethal dose 50,[2],209 mg/kg
same,Kp,"[3]; brain, read-out: P ratio Brain",0.27
same,Kp,"[3]; heart, read-out: P ratio Heart",4.28
same,Kp,"[3]; kidney, read-out: P ratio Kidney",7.44
same,Kp,"[3]; liver, read-out: P ratio Liver",11.2
same,Kp,"[3]; lung, read-out: P ratio Lung",6.01
same,Kp,"[3]; muscle, read-out: P ratio Muscle",3.87
same,Kp,"[3]; thymus, read-out: P ratio Thymus",4.96
same,Kp,"[3]; male, testicle, read-out: P ratio Testicle",1.75
same,concentration at 0.5 h,[3]; [8],4940 ng/g
same,concentration at 1 h,[3]; [8],8820 ng/g
same,concentration at 8 h,[3]; [8],6970 ng/g
same,concentration at 0.5 h,[3]; [9],2280 ng/g
same,concentration at 1 h,[3]; [9],2550 ng/g
same,concentration at 1.5 h,[3]; [9],2340 ng/g
same,concentration at 2 hr,[3]; [9],2570 ng/g
same,concentration at 3 h,[3]; [9],2020 ng/g
same,concentration at 5 h,[3]; [9],1520 ng/g
same,concentration at 8 h,[3]; [9],330 ng/g
same,concentration at 0.5 h,[3]; [10],47200 ng/g
same,concentration at 1 h,[3]; [10],58000 ng/g
same,concentration at 1.5 hr,[3]; [10],50000 ng/g
same,concentration at 2 hr,[3]; [10],36700 ng/g
same,concentration at 3 h,[3]; [10],27700 ng/g
same,concentration at 5 h,[3]; [10],1330 ng/g
same,concentration at 8 h,[3]; [10],8720 ng/g
same,concentration at 0.5 h,[3]; [11],79200 ng/g
same,concentration at 1 h,[3]; [11],79200 ng/g
same,concentration at 1.5 h,[3]; [11],77400 ng/g
same,concentration at 2 hr,[3]; [11],62200 ng/g
same,concentration at 3 h,[3]; [11],48800 ng/g
same,concentration at 5 h,[3]; [11],34000 ng/g
same,concentration at 8 h,[3]; [11],20200 ng/g
same,concentration at 0.5 h,[3]; [12],128000 ng/g
same,concentration at 1 h,[3]; [12],114000 ng/g
same,concentration at 1.5 h,[3]; [12],118000 ng/g
same,concentration at 2 hr,[3]; [12],85400 ng/g
same,concentration at 3 h,[3]; [12],70800 ng/g
same,concentration at 5 h,[3]; [12],57400 ng/g
same,concentration at 8 h,[3]; [12],26600 ng/g
same,concentration at 0.5 h,[3]; [13],76300 ng/g
same,concentration at 1 h,[3]; [13],70100 ng/g
same,concentration at 1.5 h,[3]; [13],71500 ng/g
same,concentration at 2 hr,[3]; [13],52700 ng/g
same,concentration at 3 h,[3]; [13],38700 ng/g
same,concentration at 5 h,[3]; [13],24500 ng/g
same,concentration at 8 h,[3]; [13],11600 ng/g
same,concentration at 0.5 h,[3]; [14],38000 ng/g
same,concentration at 1 h,[3]; [14],39600 ng/g
same,concentration at 1.5 h,[3]; [14],37400 ng/g
same,concentration at 2 hr,[3]; [14],36700 ng/g
same,concentration at 3 h,[3]; [14],28800 ng/g
same,concentration at 5 h,[3]; [14],18000 ng/g
same,concentration at 8 h,[3]; [14],6930 ng/g
same,concentration at 0.5 h,[3]; [15],11.6 µg/mL
same,concentration at 1 h,[3]; [15],12.2 µg/mL
same,concentration at 1.5 h,[3]; [15],10.7 µg/mL
same,concentration at 2 hr,[3]; [15],8.47 µg/mL
same,concentration at 3 h,[3]; [15],6.3 µg/mL
same,concentration at 5 h,[3]; [15],4.62 µg/mL
same,concentration at 8 h,[3]; [15],1.87 µg/mL
same,AUC(0-t),"[3]; plasma, ICR mice, p.o. 100 mg/kg, read-out: AUC0-t Plasma",47.4 µg·h/mL
same,concentration at 0.5 h,[3]; [16],91600 ng/g
same,concentration at 1 h,[3]; [16],98100 ng/g
same,concentration at 1.5 hr,[3]; [16],84900 ng/g
same,concentration at 2 hr,[3]; [16],67300 ng/g
same,concentration at 3 h,[3]; [16],57600 ng/g
same,concentration at 5 h,[3]; [16],43700 ng/g
same,concentration at 8 h,[3]; [16],23400 ng/g
same,concentration at 1.5 hr,[3]; [17],10200 ng/g
same,concentration at 2 hr,[3]; [17],12900 ng/g
same,concentration at 3 h,[3]; [17],14800 ng/g
same,concentration at 5 h,[3]; [17],11500 ng/g
same,concentration at 0.5 h,[3]; [18],26500 ng/g
same,concentration at 1 h,[3]; [18],48100 ng/g
same,concentration at 1.5 hr,[3]; [18],48800 ng/g
same,concentration at 2 hr,[3]; [18],40100 ng/g
same,concentration at 3 h,[3]; [18],39800 ng/g
same,concentration at 5 h,[3]; [18],25900 ng/g
same,concentration at 8 h,[3]; [18],12800 ng/g
same,Solubility relative to the hydrochloride,[4]; distilled water,about 2 times
same,solubility,"[4]; room temperature, water",190 mg/mL
same,AUC(0-inf),[5]; [19],9.32 ± 0.28 µg·h/mL
same,AUC(0-t),[5]; [19],7.52 ± 0.22 µg·h/mL
same,Cmax,[5]; [19],4.18 ± 0.29 µg/mL
same,Tmax,[5]; [19],0 h
same,half-life,[5]; [19],2.05 ± 1.55 h
same,AUC(0-t),[5]; [20],52.7 ± 28.7 µg·h/mL
same,Cmax,[5]; [20],9.08 ± 4.5 µg/mL
same,Tmax,[5]; [20],2.13 ± 0.63 h
same,BA (%),"[5]; p.o. 100 mg/kg, calculated by ratio of AUC0-t",70.05%
same,Content (%) 60? (after 3 weeks),"[6]; 60?, 3 weeks",87.4%
same,Content (%) Initial,[6]; initial,98.1%
same,Content (%) Room temperature (after 3 weeks),"[6]; room temperature, 3 weeks",98.0%
same,Kp,[7],8.82
